Measurements as given in patent publication US20080280837A1, “Biologically Active Compounds with Anti-Angiogenic Properties” (priority 2004, published 2008).

Molecular target: T1, Human SST5 somatostatin receptor (SSTR5) (Homo sapiens, UniProt P35346)
T1 construct: expressed in transfected cells; host or cells: HEK-293 EBNA
Experiment: Filter plate assay for SST5 receptor, displacement of [125I]SST-14
Assay type: binding
Protocol: Receptor membrane preparations containing the desired cloned receptor (for example cloned human somatostatin receptor subtype 5, SSTR5) and radio-labeled ligand (for example 3-[^125I]iodotyrosyl^11 Somatostatin-14)) were diluted at the concentration required for testing and according to the specific parameters associated with the selected receptor-ligand combination, including receptor Bmax, ligand Kd and any other parameters necessary to optimize the experimental conditions. When tested for competition activity to the reference ligand, “compound 1” was mixed with membrane suspension and the radiolabeled reference ligand (with or without an excess of cold ligand to the receptor for determination of non-specific binding) and incubated at the temperature required by internal standard operating procedures. Following incubation, the binding reaction was stopped by the addition of ice-cold washing buffer and filtered on appropriate filters, which are then counted. Data analysis and curve-fitting was performed with XLfit (IDBS).
10 mM solutions of test compounds in 100% DMSO were prepared. ˜160 μl was used for each dilution (20 μl/well in triplicate).
A 1.25 mM assay stock was prepared by making a 1:8 dilution of the 10 mM solution. (To 30 μL of the 10 mM solution was added 210 μL milli-Q H2O. A 1:5 dilution series in milli-Q H2O was then prepared.
Assays were performed in triplicate at each concentration within the 1:5 dilution series: 250 μM, 50 μM, 10 μM, […], 0.4 μM, 0.08 μM, 0.016 μM, 0.0032 μM, etc. (for SST4 assay) and 125 μM, 10 μM, 2 μM, 1 μM, 0.5 μM, etc (for SST5 assay).
Human SST5 somatostatin receptor was transfected into HEK-293 EBNA cells. Membranes were suspended in assay buffer (50 mM Tris-HCl, 1 mM EGTA, 5 mM MgCl2, 10% sucrose, pH 7.5).
After thawing the frozen receptor preparation rapidly, receptors were diluted with binding buffer, homogenized, and kept on ice. • 1. Use Multiscreen glass fiber filter plates (Millipore, Cat No MAFCNOB10) precoated with o.5% PEI for ˜2 hr at 4° C. Before use add 200 μl/well assay buffer and filter using Multiscreen Separation System. • 2. Incubate 5.5 μg of membranes (40 μl of a 1:40 dilution), buffer and [^125I]SST-14 (4 nM, ˜80 000 cpm, 2000 Ci/mmol) in a total volume of 200 μl for 60 min at 25° C. […] Prepare serial dilutions (1:5) of compounds, as described above and instead of adding SST-14 in well, add 20 μl of compounds (Table 1). • 3. Filter using Multiscreen Separation System with 5×0.2 ml ice-cold Assay buffer. • 4. Remove the plastic underdrain and dry plate in oven for 1 hr at 40° C. • 5. Seal tape to the bottom of the plate. • 6. Add 50 μl/well scintillant (Supermix, Wallac, Cat No 1200-439). • 7. Seal and count in the BJET, program 2.
In primary screening experiments compounds were tested in duplicate for a particular concentration.

T1 sequence (P35346 whole entry): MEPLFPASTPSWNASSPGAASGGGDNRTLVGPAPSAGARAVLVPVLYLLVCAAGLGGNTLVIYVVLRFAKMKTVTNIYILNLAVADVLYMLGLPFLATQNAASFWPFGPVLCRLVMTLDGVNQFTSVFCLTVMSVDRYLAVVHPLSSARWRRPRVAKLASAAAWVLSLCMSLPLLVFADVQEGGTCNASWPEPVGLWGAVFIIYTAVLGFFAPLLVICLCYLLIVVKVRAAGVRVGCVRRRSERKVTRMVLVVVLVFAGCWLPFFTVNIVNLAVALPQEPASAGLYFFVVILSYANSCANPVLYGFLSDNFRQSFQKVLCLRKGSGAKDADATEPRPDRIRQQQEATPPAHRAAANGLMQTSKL

Row | Structure (SMILES) | SSTR5 Inhib 0.5 uM % (inhibition of binding of SST-14 to SSTR5) [%] | SSTR5 Inhib 10 uM % (inhibition of binding of SST-14 to SSTR5) [%]
1 | COC[C@H]1OC(OCc2ccccc2)[C@H](NC(=O)CCNC(=N)N)[C@H](OCc2ccc(Cl)cc2)[C@@H]1O (some centres unmarked) [Compound 102] | 42 | 84
2 | CSC1O[C@H](COCc2ccc3ccccc3c2)[C@@H](O)[C@@H](OCc2ccc(Cl)cc2)[C@H]1NC(=O)CCN (some centres unmarked) [Compound 158] | 36 | 75
3 | COC[C@H]1OC(OCCc2ccccc2)[C@H](NC(=O)CCCNC(=N)N)[C@@H](OCc2ccc(Cl)cc2)[C@@H]1O (some centres unmarked) [Compound 168] | 47 | 72
4 | CO[C@H]1[C@H](O)[C@@H](COCc2ccc(-c3ccccc3)cc2)OC(OCc2ccc(-c3ccccc3)cc2)[C@@H]1NC(=O)CCCNC(=N)N (some centres unmarked) [Compound 157] | 20 | 75
5 | COC[C@H]1OC(OCc2ccccc2)[C@H](NC(=O)CCCN)[C@@H](OCc2ccc3ccccc3c2)[C@@H]1O (some centres unmarked) [Compound 32] | 80 | 95
6 | COC[C@H]1OC(OCc2ccc(Cl)cc2)[C@H](NC(=O)CCCN)[C@H](OCc2ccc3ccccc3c2)[C@@H]1O (some centres unmarked) [Compound 24] | 67 | 96
7 | COC[C@H]1OC(OCc2ccc3ccccc3c2)[C@H](NC(=O)CCCN)[C@@H](OCc2cccc(O)c2)[C@@H]1O (some centres unmarked) [Compound 146] | 40 | 77
8 | COC[C@H]1OC(OCc2ccc3ccccc3c2)[C@H](NC(=O)CCCNC(=N)N)[C@@H](OCc2ccccc2)[C@@H]1O (some centres unmarked) [Compound 135] | 45 | 79
9 | CSC1O[C@H](COCc2ccc(Cl)cc2)[C@@H](O)[C@@H](OCc2ccc3ccccc3c2)[C@H]1NC(=O)CN (some centres unmarked) [Compound 167] | 43 | 73
10 | COC1C(O)C(COCc2ccc(-c3ccccc3)cc2)OC(OCc2ccc3ccccc3c2)C1NC(=O)CCNC(=N)N (centres unmarked) [Compound 169] | 27 | 72
11 | COC[C@H]1OC(OCCc2ccccc2)[C@H](NC(=O)CCCNC(=N)N)[C@@H](OCc2ccc(Cl)cc2)[C@@H]1O (some centres unmarked) [Compound 98] | 55 | 84
12 | CSC1OC(COCc2ccc(Cl)cc2)C(O)C(OCc2ccc(-c3ccccc3)cc2)C1NC(=O)CN (centres unmarked) [Compound 83] | 61 | 87
13 | COC1C(O)C(COCc2ccc3ccccc3c2)OC(OCc2ccc(Cl)cc2)C1NC(=O)C1CCCN1 (centres unmarked) [Compound 51] | 76 | 92
14 | COC[C@H]1OC(OCc2ccc(-c3ccccc3)cc2)[C@H](NC(=O)CCCNC(=N)N)[C@@H](OCc2ccc3ccccc3c2)[C@@H]1O (some centres unmarked) [Compound 178] | 39 | 71
15 | CSC1O[C@H](COCc2ccccc2)[C@@H](O)[C@@H](OCc2ccc3ccccc3c2)[C@H]1NC(=O)CCN (some centres unmarked) [Compound 109] | 44 | 83
16 | COC[C@H]1OC(OCc2ccccc2)[C@H](NC(=O)CCCN)[C@H](OCc2ccccc2)[C@@H]1O (some centres unmarked) [Compound 154] | 33 | 76
17 | CSC1O[C@H](COCc2ccccc2)[C@@H](O)[C@@H](OCc2ccc3ccccc3c2)[C@H]1NC(=O)CCCN (some centres unmarked) [Compound 156] | 25 | 76

Row | Structure (SMILES) | SSTR5 Inhib 0.5 uM % (inhibition of binding of SST-14 to SSTR5) [%] | SSTR5 Inhib 10 uM % (inhibition of binding of SST-14 to SSTR5) [%]
18 | COC[C@H]1OC(OCc2ccc(Cl)cc2)[C@H](NC(=O)CCCNC(=N)N)[C@@H](OCc2ccc(Cl)cc2)[C@@H]1O (some centres unmarked) [Compound 56] | 57 | 91
19 | CO[C@H]1[C@H](O)[C@@H](COCc2ccc(-c3ccccc3)cc2)OC(OCc2ccc3ccccc3c2)[C@@H]1NC(=O)CCCN (some centres unmarked) [Compound 161] | 51 | 74
20 | CSC1O[C@H](COCc2ccccc2)[C@@H](O)[C@@H](OCc2ccc3ccccc3c2)[C@H]1NC(=O)CNC(=N)N (some centres unmarked) [Compound 72] | 51 | 89
21 | COC[C@H]1OC(OCc2ccc(Cl)cc2)[C@H](NC(=O)CNC(=N)N)[C@H](OCc2ccc3ccccc3c2)[C@@H]1O (some centres unmarked) [Compound 159] | 31 | 75
22 | CO[C@H]1[C@H](O)[C@@H](COCc2ccc3ccccc3c2)OC(OCc2ccc(Cl)cc2)[C@@H]1NC(=O)CCCN (some centres unmarked) [Compound 121] | 32 | 81
23 | COC[C@H]1OC(OCc2ccc(Cl)cc2)[C@H](NC(=O)CCCN)[C@@H](OCc2ccc3ccccc3c2)[C@@H]1O (some centres unmarked) [Compound 19] | 88 | 98
24 | CSC1O[C@H](COCc2ccccc2)[C@@H](O)[C@@H](OCc2ccc3ccccc3c2)[C@H]1NC(=O)CCNC(=N)N (some centres unmarked) [Compound 128] | 28 | 80
25 | COC[C@H]1OC(OCc2ccc(-c3ccccc3)cc2)[C@H](NC(=O)CCCNC(=N)N)[C@@H](OCc2ccc(-c3ccccc3)cc2)[C@@H]1O (some centres unmarked) [Compound 58] | 65 | 91
26 | COC[C@H]1OC(OCc2ccc(Cl)cc2)[C@H](NC(=O)CCCN)[C@@H](OCc2ccc(Cl)cc2)[C@@H]1O (some centres unmarked) [Compound 33] | 68 | 95
27 | COC[C@H]1OC(OCc2ccc3ccccc3c2)[C@H](NC(=O)CCNC(=N)N)[C@@H](OCc2ccc3ccccc3c2)[C@@H]1O (some centres unmarked) [Compound 151] | 36 | 76
28 | COC[C@H]1OC(OCc2ccc(Cl)cc2)[C@H](NC(=O)CCN)[C@H](OCc2ccc(Cl)cc2)[C@@H]1O (some centres unmarked) [Compound 39] | 74 | 95
29 | COC[C@H]1OC(OCCc2ccccc2)[C@H](NC(=O)CCCN)[C@@H](OCc2cccc(O)c2)[C@@H]1O (some centres unmarked) [Compound 147] | 40 | 77
30 | COC1C(O)C(COCc2ccc3ccccc3c2)OC(OCCc2ccccc2)C1NC(=O)CCCN (centres unmarked) [Compound 140] | 38 | 78
31 | COC[C@H]1OC(OCc2ccccc2)[C@H](NC(=O)CCNC(=N)N)[C@H](OCc2ccccc2)[C@@H]1O (some centres unmarked) [Compound 112] | 58 | 83
32 | COC[C@H]1OC(OCc2ccccc2)[C@H](NC(=O)CCCNC(=N)N)[C@H](OCc2ccc3ccccc3c2)[C@@H]1O (some centres unmarked) [Compound 100] | 59 | 84
33 | COC[C@H]1OC(OCc2ccc(Cl)cc2)[C@H](NC(=O)CCNC(=N)N)[C@H](OCc2ccc(Cl)cc2)[C@@H]1O (some centres unmarked) [Compound 71] | 49 | 89
34 | COC[C@H]1OC(OCc2ccccc2)[C@H](NC(=O)CCCN)[C@@H](OCc2ccc(Cl)cc2)[C@@H]1O (some centres unmarked) [Compound 110] | 45 | 83
